In the Deep4Chem optical property database:

Assay: solvent given as SMILES
[1] = in O=P(c1ccccc1)(c1ccccc1)c1ccccc1Oc1ccccc1P(=O)(c1ccccc1)c1ccccc1

With `CN(C)c1ccc(/C=C/c2ccc(C#N)cc2)cc1` the emission maximum (in C1CCOC1) was 499 nm, the emission maximum (in CC#N) was 530 nm and the emission maximum (in CCCC#N) was 522 nm. For the same compound, the emission maximum (in CCCCCC) was 415 nm, the emission maximum (in CCCCOCCCC) was 453 nm and the emission maximum (in CCO) was 524 nm. The emission maximum (in CCOCC) was 475 nm.
In the case of `CCCCN(CCCC)c1ccc2c#cc3cc4c#cc5ccc(N(CCCC)CCCC)cc5c#cc#cc5cc(C(F)(F)F)ccc5c#cc4cc3c#cc3ccc(C(F)(F)F)cc3c#cc#cc2c1`, the emission maximum (in ClCCl) is reported as 544 nm and the emission maximum (in c1ccccc1) is reported as 501 nm.
Compound `CCCCCCN1C(=O)c2cccc3c(-c4ccc(-c5cc(-c6ccc(C)cc6)n(-c6ccccc6)n5)s4)ccc(c23)C1=O` has an emission maximum (in ClCCl) of 521 nm.
With `CCCCC1(CCCC)c2ccccc2-c2ccc(-c3c4c(nc5ccccc35)-c3cc5c(cc3CC4)-c3nc4ccccc4c(-c4ccc6c(c4)C(CCCC)(CCCC)c4ccccc4-6)c3CC5)cc21` the emission maximum (in ClC(Cl)Cl) was 385 nm.
Work on `N#CC1=CC(/C=C/c2ccccc2)=CC(C#N)=P1(c1ccccc1)c1ccccc1` yielded an emission maximum (in ClC(Cl)Cl) of 581 nm.
`c1ccc(-c2nnc(-c3ccccc3)n2-c2ccc(N3c4ccccc4N(c4ccccc4)c4ccccc43)cc2)cc1` showed an emission maximum (in Cc1ccccc1) of 495 nm and an emission maximum (in c1cc(-n2c3ccccc3c3ccccc32)cc(-n2c3ccccc3c3ccccc32)c1) of 474 nm.
In the case of `CCCCCCCCCCCCOc1ccc(C#Cc2ccc(C#Cc3ccc(OCCCCCCCCCCCC)c(OCCCCCCCCCCCC)c3)c3nc4c5ccccc5c5ccccc5c4nc23)cc1OCCCCCCCCCCCC`, the emission maximum (in C1CCOC1) is reported as 558 nm, the emission maximum (in Cc1ccccc1) is reported as 541 nm and the emission maximum (in ClCCl) is reported as 566 nm.
In the case of `NNC(=O)c1ccc(/C=C/c2ccc(C(=O)NN)cc2)cc1`, the emission maximum (in CN(C)C=O) is reported as 395 nm.
For `O=S(=O)(c1ccc(N(c2ccccc2)c2ccccc2)cc1)c1ccc(S(=O)(=O)c2ccc(N(c3ccccc3)c3ccccc3)cc2)cc1`, the emission maximum (in Cc1ccccc1) was 451 nm.
For `CN(C)c1ccc(/C=C/C=C2\CC/C(=C\c3ccc(N(C)C)cc3)C2=O)cc1`, the emission maximum (in C1CCOC1) was 649 nm, the emission maximum (in CC#N) was 666 nm and the emission maximum (in CC(C)=O) was 650 nm. For the same compound, the emission maximum (in CC(C)O) was 687 nm, the emission maximum (in CCCCCC) was 504 nm and the emission maximum (in CCCCO) was 712 nm. It also gave an emission maximum (in CCCCOC(C)=O) of 581 nm, an emission maximum (in CCCO) of 717 nm and an emission maximum (in CCO) of 725 nm. The emission maximum (in CCOC(=O)c1ccccc1) was 604 nm, the emission maximum (in CCOC(C)=O) was 591 nm and the emission maximum (in CCOCC) was 546 nm. The emission maximum (in CN(C)C=O) was 656 nm, the emission maximum (in CO) was 737 nm and the emission maximum (in CS(C)=O) was 676 nm. The emission maximum (in Cc1ccccc1) was 530 nm, the emission maximum (in ClC(Cl)(Cl)Cl) was 515 nm and the emission maximum (in ClC(Cl)Cl) was 623 nm. For the same compound, the emission maximum (in ClCCl) was 635 nm, the emission maximum (in Clc1ccccc1Cl) was 608 nm and the emission maximum (in S=C=S) was 540 nm. For the same compound, the emission maximum (in c1ccccc1) was 532 nm and the emission maximum (in c1ccncc1) was 643 nm.
`N#Cc1c2nc3ccccn3c2nc2c1nc1ccccn12` gave an emission maximum (in C1CCCCC1) of 460 nm, an emission maximum (in C1COCCO1) of 470 nm and an emission maximum (in CC#N) of 495 nm. The emission maximum (in CN(C)C=O) was 515 nm and the emission maximum (in ClC(Cl)Cl) was 475 nm.
Compound `Cc1ccc(N(C)C)cc1C1=C2C=CC(=[N+](C)C)C=C2[Si](C)(C)c2cc(N(C)C)ccc21` has an emission maximum (in O) of 662 nm.
In the case of `F[B-]1(F)N2C=CN=CC2=[N+]2[N+]1=Cc1c(-c3ccccc3)cc(-c3cccs3)n1[B-]2(F)F`, the emission maximum (in ClCCl) is reported as 566 nm.
Work on `COc1ccc(N(c2ccccc2)c2cc3ccc4cc(N(c5ccccc5)c5ccc(OC)cc5)cc5ccc(c2)c3c45)cc1` yielded an emission maximum (in Cc1ccccc1) of 482 nm.
`CCOC(=O)c1ccc(/C=C/C2=[N+]3C(=C(c4ccccc4)c4ccc(/C=C/c5ccc(C(=O)OCC)o5)n4[B-]3(F)F)C=C2)o1` gave an emission maximum (in ClC(Cl)Cl) of 681 nm.
With `CCC12C(=C3C(=C4c5ccc(-c6ccc(C(C)=O)cc6)cc5S(=O)(=O)C41CC)C(F)(F)C(F)(F)C3(F)F)c1ccc(-c3ccc(C(C)=O)cc3)cc1S2(=O)=O` (centres undefined) the emission maximum (in C1COCCO1) was 561.95 nm.
`CCCC(=O)c1c2c(c(C(=O)CCC)c3c1OC(CC(=O)OC)(C(=O)O)O3)OCO2` showed an emission maximum (in CC#N) of 542 nm, an emission maximum (in CCO) of 603 nm and an emission maximum (in CO) of 614 nm. For the same compound, the emission maximum (in ClCCl) was 530 nm and the emission maximum (in O) was 637 nm.
Work on `Cc1cc(C)c(C2=C3C=CC(c4cccc5ccccc45)=[N+]3[B-](F)(F)n3c2ccc3-c2cccc3ccccc23)c(C)c1` yielded an emission maximum (in ClC(Cl)Cl) of 601 nm.
`COc1c2ccccc2c(OC)c2c(C#Cc3ccccc3)c3cc4sccc4cc3c(C#Cc3ccccc3)c12` showed an emission maximum (in ClCCl) of 672 nm.
With `COC(=O)C(N)Cc1ccc(O[Si]2(Oc3ccc(CC(N)C(=O)OC)cc3)n3c4c5ccccc5c3/N=C3N=C(/N=c5/c6ccccc6/c(n52)=N/C2=NC(=N\4)/c4ccccc42)c2ccccc2\3)cc1` (centres undefined) the emission maximum (in CN(C)C=O) was 687 nm.
For `CC(C)Oc1ccc(C#Cc2ccc3ccc(=O)oc3c2)cc1`, the emission maximum (in CC#N) was 470 nm.
In the case of `O=C1c2ccccc2NCN1Cc1ccccc1`, the emission maximum (in CC#N) is reported as 416 nm, the emission maximum (in CCCCCCCCCCCCCCCC) is reported as 381 nm and the emission maximum (in CO) is reported as 443 nm. It also gave an emission maximum (in ClC(Cl)Cl) of 398 nm and an emission maximum (in c1ccccc1) of 395 nm.
`COc1ccc2cc(C3=[N+]4C(=Nc5c(-c6ccccc6)cc(-c6ccc7cc(OC)ccc7c6)n5[B-]4(F)F)C(c4ccccc4)=C3Br)ccc2c1` showed an emission maximum (in ClC(Cl)Cl) of 728 nm and an emission maximum (in ClCCl) of 728 nm.
In the case of `CCOC(=O)/C(C#N)=C\c1ccc2c(c1)c1ccccc1n2-c1ccc(C)cc1`, the emission maximum (in C1CCOC1) is reported as 461 nm, the emission maximum (in CC#N) is reported as 508 nm and the emission maximum (in CC(C)=O) is reported as 503 nm. For the same compound, the emission maximum (in CCOC(C)=O) was 460 nm, the emission maximum (in CO) was 495 nm and the emission maximum (in CS(C)=O) was 503 nm. For the same compound, the emission maximum (in Cc1ccccc1) was 444 nm and the emission maximum (in ClC(Cl)Cl) was 482 nm.
With `CC1(C)c2ccccc2N(c2ccc3c(c2)c2ccccc2n2c4ccccc4nc32)c2ccccc21` the emission maximum (in Cc1ccccc1) was 437 nm and the emission maximum [1] was 447.06 nm.
`CC1(C)C(/C=C/C=C/c2cc3ccc(O)cc3oc2=O)=[N+](CCCS(=O)(=O)[O-])c2ccc(S(=O)(=O)O)cc21` showed an emission maximum (in CCO) of 654 nm, an emission maximum (in CS(C)=O) of 655 nm and an emission maximum (in O) of 722 nm.
Work on `C(#Cc1cccc2nsnc12)c1ccc(-n2c3ccccc3c3ccccc32)cc1` yielded an emission maximum (in ClCCl) of 538 nm.
`CCN(CC)c1ccc2cc(-c3ccc(-c4ccc(-c5cc6ccc(N(CC)CC)cc6oc5=O)cc4)cc3)c(=O)oc2c1` gave an emission maximum (in ClCCl) of 484 nm.
With `O=C(/C=C(\O)c1ccc(N2c3ccccc3Oc3ccccc32)cc1)c1ccc(N2c3ccccc3Oc3ccccc32)cc1` the emission maximum (in Cc1ccccc1) was 594 nm and the emission maximum (in c1ccc2c(c1)c1ccccc1n2-c1ccc(-c2ccc(-n3c4ccccc4c4ccccc43)cc2)cc1) was 550.32 nm.
Compound `CC(=O)Nc1ccc(C2=C/C(=C\c3ccc([N+](=O)[O-])cc3)C(=O)O2)cc1` has an emission maximum (in C1COCCO1) of 550 nm.
With `N#Cc1nc(N(Cc2ccc(Cl)cc2)Cc2ccc(Cl)cc2)c(C#N)nc1N(Cc1ccc(Cl)cc1)Cc1ccc(Cl)cc1` the emission maximum (in ClC(Cl)Cl) was 577 nm.
Work on `Cc1cc(C)c(-c2nnc(-c3ccc(-n4c5ccccc5c5ccccc54)cc3)o2)c(C)c1` yielded an emission maximum (in CCO) of 435 nm and an emission maximum (in Cc1ccccc1) of 379 nm.
In the case of `COCCN1C(=O)/C(=C/c2cccc(N(C)C)c2)N=C1C`, the emission maximum (in C1CCOC1) is reported as 563 nm, the emission maximum (in CC#N) is reported as 632 nm and the emission maximum (in CCCCCC) is reported as 491 nm.
With `c1ccc2c(c1)Cc1ccccc1N2c1c2ccccc2cc2ccccc12` the emission maximum (in Cc1ccccc1) was 535 nm.
In the case of `NCCc1c[nH]c2ccc(O)cc12`, the emission maximum (in CC#N) is reported as 332 nm, the emission maximum (in CC(C)O) is reported as 335 nm and the emission maximum (in CO) is reported as 334 nm. For the same compound, the emission maximum (in O) was 337 nm.
`F[B-]1(F)OC(c2cccc(Br)c2)=Cc2c3ccccc3c3ccccc3[n+]21` showed an emission maximum (in ClC(Cl)Cl) of 446 nm.
With `C(#Cc1cnc(C#Cc2ccccc2)nc1)c1ccccc1` the emission maximum (in C1CCCCC1) was 425 nm.
For `CC1(C)Nc2cc(Cl)ccc2-c2[nH]c3ccccc3c(=O)c21`, the emission maximum (in C1CCOC1) was 474 nm, the emission maximum (in CC#N) was 496 nm and the emission maximum (in CCCCO) was 505 nm. For the same compound, the emission maximum (in CCCO) was 505 nm, the emission maximum (in CCO) was 506 nm and the emission maximum (in CCOC(C)=O) was 482 nm. For the same compound, the emission maximum (in CN(C)C=O) was 493 nm, the emission maximum (in CO) was 513 nm and the emission maximum (in CS(C)=O) was 494 nm. It also gave an emission maximum (in Cc1ccccc1) of 460 nm, an emission maximum (in ClC(Cl)(Cl)Cl) of 451 nm and an emission maximum (in ClCCl) of 473 nm. The emission maximum (in O) was 536 nm and the emission maximum (in c1ccccc1) was 462 nm.
With `CC/[NH+]=c1\cc2oc3cc(NCCC(=O)NC(C(=O)OC)c4ccccc4)c4ccccc4c3nc-2cc1C` (centres undefined) the emission maximum (in CCO) was 644 nm and the emission maximum (in O) was 657 nm.
`CC(C)(C)c1ccc2c(c1)sc1[n+]2[B-](F)(F)n2c(c3cccc4c(Br)ccc2c43)=N1` showed an emission maximum (in C1CCOC1) of 520 nm, an emission maximum (in CC#N) of 519 nm and an emission maximum (in CCCCCC) of 516 nm. For the same compound, the emission maximum (in Cc1ccccc1) was 524 nm and the emission maximum (in ClCCl) was 552 nm.
`CCCCCCN(CCCCCC)c1ccc(C#Cc2ccc(C#Cc3ccc(-c4ccc(C#Cc5ccc(C#Cc6ccc(N(CCCCCC)CCCCCC)cc6)cc5)cc4)cc3)cc2)cc1` gave an emission maximum (in Cc1ccccc1) of 433 nm.
For `c1ccc2c(C3=C(c4cccc5ccccc45)c4cccc5c4c(cc4nc6ccccc6nc45)O3)cccc2c1`, the emission maximum (in ClCCl) was 538 nm.
`Cc1ccc(C2=C3C=C(I)C=[N+]3[B-](F)(F)n3c2cc(I)c3I)cc1` showed an emission maximum (in C1CCCCC1) of 577.5 nm, an emission maximum (in CC#N) of 578 nm and an emission maximum (in CCO) of 582 nm. The emission maximum (in CCOC(C)=O) was 578.5 nm, the emission maximum (in CO) was 580 nm and the emission maximum (in OCC(F)(F)F) was 576 nm.
`Cc1cc(N2c3ccccc3C(C)(C)c3ccccc32)ccc1-c1ncnc(-c2ccc(N3c4ccccc4C(C)(C)c4ccccc43)cc2C)c1C` showed an emission maximum (in Cc1ccccc1) of 454 nm and an emission maximum [1] of 454 nm.
Work on `Cc1ccc(C#Cc2ccc3ccc4cccc5ccc2c3c45)cc1` yielded an emission maximum (in CCCCCC) of 387 nm, an emission maximum (in CCO) of 391 nm and an emission maximum (in CCOC(C)=O) of 391 nm. For the same compound, the emission maximum (in ClCCl) was 395 nm.
`CCCCC1=Cc2c3ccc4cccc5ccc(c6cc(-c7ccc(N(c8ccccc8)c8ccccc8)cc7)n(c26)P1(=O)c1ccccc1)c3c45` (centres undefined) gave an emission maximum (in C1CCCCC1) of 502 nm, an emission maximum (in C1CCOC1) of 541 nm and an emission maximum (in C1COCCO1) of 526 nm. For the same compound, the emission maximum (in CC#N) was 572 nm, the emission maximum (in CC(C)=O) was 560 nm and the emission maximum (in CO) was 563 nm. It also gave an emission maximum (in Cc1ccccc1) of 518 nm, an emission maximum (in ClC(Cl)Cl) of 537 nm and an emission maximum (in ClCCl) of 551 nm.
Compound `Fc1ccccc1-c1nc2sc3ccccc3c2s1` has an emission maximum (in CS(C)=O) of 407 nm.
